{
  "source": "patent US20220296583A1",
  "about": "“COMPOSITIONS AND METHODS FOR TREATMENT OF OVARIAN AND BREAST CANCER” (Board of Regents, The University of Texas System, priority 2021, published 2022)",
  "key": {"[1]": {"tested_on": "OVCAR8, SKOv3, OC316, OVCAR3, ES2, A2780, MDA2774, and IGROV1 cells", "experiment": "Short term cell proliferation (CellTiter-Glo), eight ovarian cancer cell lines", "type": "cell-based, human", "details": "single concentration of Compound B 0.75-1.25 μM; p<0.01", "protocol": "Cells were seeded in 6 replicates in black-walled and clear-bottomed 96-well plates and incubated overnight. […] The CellTiter-Glo luminescent cell viability assay (Promega) was used to evaluate the effect of treatment on cancer growth. This experiment was performed several times to optimize the concentration. […] GraphPad Prism 8 was used to generate growth curves and calculated IC50. CalcuSyn was used to evaluate additive or synergistic interactions, a combination Index (CI value)."}, "[2]": {"tested_on": "HDAC4 (Ser246)/HDAC5 (Ser256)/HDAC7 (Ser155)", "experiment": "Western analysis of HDAC4/5/7 phosphorylation", "type": "cell-based", "details": "4 μM, 24 hrs; nearly all the cell lines tested", "protocol": "To identify the mechanism(s) by which SIK2 inhibition decreases DNA DBS repair, it was tested whether SIK2 inhibitors decrease the phosphorylation of class IIa HDACs, which control its nuclear cytoplasmic shuttling and consequently its association with DNA. […] Next, it was investigated whether SIK2 inhibitors increase nuclear localization of HDAC5. SIK2 inhibition increased nuclear localization of HDAC5 judged by increasing nuclear florescence intensity (FIG. 7B and FIG. 8A) and the nuclear fraction of HDAC5 expression (FIG. 8B). […] Therefore, it was hypothesized that SIK2 inhibition may block MEF transcription factor activity. […] Next, it was examined whether SIK2 regulation of MEF2 activity was HDAC4/5-dependent, increasing its binding to MEF2D protein. […] These observations are consistent with the hypothesis that SIK2 inhibition increases nuclear localization of HDAC4/5, blocking MEF2 transcription (FIG. 8E).\nCells were incubated with and without treatment for the intervals indicated and then cells were incubated in lysis buffer (50 mM Hepes, pH 7.0, 150 mM NaCl, 1.5 mM MgCl2, 1 mM EGTA, 10, 10% glycerol, 1% Triton X-100, 50 mM NaF, 1 mM Na3VO4 1 mM PMSF, 10 μg/mL leupeptin and10 μg/mL aprotinin) on ice for 30 min. […] The protein concentration was assessed using a bicinchoninic acid (BCA) protein assay (Thermo Scientific, 23228). […]"}, "[3]": {"tested_on": "OVCAR8, SKOv3, and OC316 ovarian cancer cell lines", "experiment": "Annexin V/PI apoptosis, Compound B and carboplatin", "type": "cell-based", "details": "72 h; flow cytometry", "protocol": "Cells were dislodged and stained with Annexin V antibody and PI dye for flow cytometry. Representative images are shown on the left and the analysis of apoptotic population under different treatment conditions are on the right. (B) Effect of SIK2 knockout on carboplatin-induced apoptosis. SIK2 knockout (KO) and control cell lines were treated as in (A) and analyzed for apoptosis. The bars indicate the mean percentage of apoptotic cells with standard deviations.\nAfter completion of incubation, cells were harvested and washed with PBS two times. After washing, cells were re-suspended in 100 μL Annexin-binding buffer containing propidium iodide (PI) and FITC Annexin-V (Invitrogen) and incubated at ambient temperature for 15 min in the dark. After incubation, 200 μL of Annexin-binding buffer was added and stained cells were analyzed using a Beckman Coulter's Gallios Flow Cytometer.\n(§1) Many current cancer chemotherapies, including platinum-based drugs, exert their antitumor effect by triggering apoptosis in cancer cells. […] The inhibitor of apoptosis protein family (IAPs) includes an important group of proteins involved in the regulation of apoptosis. One member of this protein family, survivin, plays an important role in promoting tumor progression by deregulating apoptosis and cell division."}, "[4]": {"tested_on": "MDA-MB-231 xenograft", "experiment": "MDA-MB-231 mammary fat pad xenograft, Compound B and olaparib", "type": "in vivo, mice", "details": "50 mg/kg, oral, 5 weeks", "description": "Forty female nu/nu mice were injected with 0.8×10^6 MDA-MB-231 cells into their fourth mammary fat pads. […] Tumors were measured every week as noted above (SKOv3 xenograft models)."}, "[5]": {"tested_on": "survivin", "experiment": "Survivin expression by western blot", "type": "cell-based", "details": "OC316 and OVCAR8; 48 h", "protocol": "Cell lysates were collected and survivin expression was measured by western blot analysis. The experiments were performed three times individually. Densitometry values were determined by Image J shareware (NIH) and normalized to the GAPDH loading control. The values relative to the untreated group were plotted at the bottom.\nCells were incubated for 24-48 h with and without treatments and then harvested for western blot analysis. Briefly, cells were incubated in lysis buffer for 20 min on ice and centrifuged at 17,000×g for 10 min at 4° C. Protein concentration of cell lysates was determined with BCA reagent (Thermo Fisher Scientific, Houston, Tex., USA). Lysates were separated on 8-16% SDS-PAGE and transferred to polyvinylidene difluoride (PVDF) membranes. Immunoblots were probed with anti-survivin antibody (Novus; 1:2000, Centennial CO, USA) in 5% BSA overnight at 4° C. and HRP labeled secondary antibody was added for 1 h at RT. The signal was developed on X-ray films.\nas §1"}, "[6]": {"tested_on": "SKOv3 xenograft", "experiment": "SKOv3 subcutaneous xenograft, Compound B, carboplatin and paclitaxel", "type": "in vivo, mice", "details": "SKOv3 s.c., 6 weeks", "protocol": "After treatment as indicated in (A) for three weeks, mice were weighed, and intraperitoneal nodules were excised and weighed. […] Mice were treated with single, double, or triple agents for 6 weeks. Tumor was measured once a week until the tumor burden in control group reached maximum allowance. The graphs indicate the mean±standard deviation. Statistical significance is indicated by *p<0.05, **p<0.01, and ***p<0.0001.\nSix-week-old female athymic nu/nu mice were purchased from Envigo. Experiments were reviewed and all procedures were performed according to an animal protocol approved by the Institutional Animal Care and Use Committee of UT MD Anderson Cancer Center. […] Carboplatin was administrated i.p. once a week at a dose of 25 mg/kg. […] Carboplatin was treated at a dose of 30 mg/kg once a week for six weeks. […] At end of six weeks, the mice were sacrificed by CO2. The mice were dissected immediately after death and the tumors were collected and weighed.\nOVCAR8 cells were injected intraperitoneally (ip) into nu/nu mice. Treatment started 7 days post injection. […] At the conclusion of the treatment, the mice were sacrificed, and the tumor was dissected and weighed (FIG. 23A). […] The tumor volume was measured at indicated time points (FIG. 23D)."}},
  "data": [
    {"compound": "COc1c(F)cc(F)cc1-c1c[nH]c2ncc(-c3cnn(C4CCN(S(C)(=O)=O)CC4)c3)cc12", "note": "[Compound B, 3-(3,5-difluoro-2-methoxyphenyl)-5-(1-(1-(methylsulfonyl)piperidin-4-yl)-1H-pyrazol-4-yl)-1H-pyrrolo[2,3-b]pyridine]", "values": [
      {"measurement": "carboplatin dose response curve when Compound B was added", "setting": "[1]", "result": "shifted to the left in seven of eight ovarian cancer cell lines"},
      {"measurement": "phosphorylation of HDAC4/HDAC5/HDAC7", "setting": "[2]", "result": "significantly decreased"},
      {"measurement": "apoptosis", "setting": "[3]", "result": "induced apoptosis as a single agent, but also enhanced carboplatin-induced apoptosis"},
      {"measurement": "tumor burden / tumor volume", "setting": "[4]", "result": "remained unchanged"},
      {"measurement": "survivin expression", "setting": "[5]", "result": "downregulation of survivin"},
      {"measurement": "tumor growth (tumor volume)", "setting": "[6]; Compound B 40 mg/kg", "result": "significantly inhibited tumor growth"},
      {"measurement": "effect when added to carboplatin plus paclitaxel", "setting": "[6]; p<0.01", "result": "further enhanced the combination treatment of carboplatin plus paclitaxel"}
    ]}
  ]
}
